Results on 8 compounds are retold here after patent US20260374773A1, “MULTI-CYCLIC IRAK AND FLT3 INHIBITING COMPOUNDS AND USES THEREOF” (CHILDREN'S HOSPITAL MEDICAL CENTER, priority 2022, published 2026).

Bounds are passed on as bounds.

The term Kd denotes the constant that tells how readily two partners part at equilibrium. Lower therefore signals tighter binding.

The target in the first experiment is T1, FLT3 D835H (Homo sapiens, UniProt P36888, D835H).
T1 sequence (P36888 27-993 D835H): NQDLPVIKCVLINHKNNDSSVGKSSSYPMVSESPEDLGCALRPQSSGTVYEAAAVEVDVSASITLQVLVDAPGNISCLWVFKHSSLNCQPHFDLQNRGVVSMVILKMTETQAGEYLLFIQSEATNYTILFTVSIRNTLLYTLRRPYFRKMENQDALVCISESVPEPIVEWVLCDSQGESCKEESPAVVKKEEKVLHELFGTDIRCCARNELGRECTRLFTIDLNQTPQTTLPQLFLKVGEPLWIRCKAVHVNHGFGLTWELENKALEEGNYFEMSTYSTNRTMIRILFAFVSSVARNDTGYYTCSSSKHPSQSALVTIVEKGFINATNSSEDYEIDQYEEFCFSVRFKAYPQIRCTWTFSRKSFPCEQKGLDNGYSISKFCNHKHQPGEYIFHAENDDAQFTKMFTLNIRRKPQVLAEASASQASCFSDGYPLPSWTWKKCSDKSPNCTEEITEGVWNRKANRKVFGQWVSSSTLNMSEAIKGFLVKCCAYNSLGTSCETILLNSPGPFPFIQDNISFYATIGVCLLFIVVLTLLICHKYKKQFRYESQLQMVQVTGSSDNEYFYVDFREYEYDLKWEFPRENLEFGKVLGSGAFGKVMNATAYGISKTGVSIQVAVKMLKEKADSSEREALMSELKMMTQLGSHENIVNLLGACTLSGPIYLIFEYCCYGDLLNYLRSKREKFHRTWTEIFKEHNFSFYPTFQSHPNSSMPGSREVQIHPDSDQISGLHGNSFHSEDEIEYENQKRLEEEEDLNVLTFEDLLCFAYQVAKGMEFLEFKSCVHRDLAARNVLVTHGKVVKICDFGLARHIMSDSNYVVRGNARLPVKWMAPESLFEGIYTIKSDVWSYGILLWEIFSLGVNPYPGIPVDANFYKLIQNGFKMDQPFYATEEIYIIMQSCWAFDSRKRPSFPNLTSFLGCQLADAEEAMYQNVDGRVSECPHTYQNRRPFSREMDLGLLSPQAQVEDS
Description: DiscoverX KINOMEscan active site-directed competition binding, FLT3 D835H. The following applies: Table 12; no ATP.
Source text: (§1) Kinase binding data were obtained for various exemplary compounds prepared according to Examples 1-8 using the DiscoverX KINOMEscan® active site-directed competition binding site-directed assay protocol described below. […] As a result, the data report thermodynamic interaction affinities (Kd values), rather than IC50 values that are dependent on ATP concentrations. The assay uses a DNA-tagged version of the protein kinase, and an immobilized ligand bound to a solid support. Compounds that directly or indirectly prevent kinase binding to the immobilized ligand reduce the amount of kinase captured on the solid support, which is detected using an ultra-sensitive qPCR method. Affinity constants reported from the assay have been reported to be independent of the immobilized ligand used that is coupled to the solid support (See supplemental information in Fabian, M. A. et. al., (2005) Nat. Biotechnol. 23, 329-336; Wodicka, L. M. et. al., (2010) Chem. Biol. 17, 1241-1249.)
Kinase-tagged T7 phage strains were prepared in an E. coli host derived from the BL21 strain. E. coli were grown to log-phase and infected with T7 phage and incubated with shaking at 32 °C until lysis. The lysates were centrifuged and filtered to remove cell debris. The remaining kinases were produced in HEK-293 cells and subsequently tagged with DNA for qPCR detection. Streptavidin-coated magnetic beads were treated with biotinylated small molecule ligands for 30 minutes at room temperature to generate affinity resins for kinase assays. The liganded beads were blocked with excess biotin and washed with blocking buffer (SeaBlock (Pierce), 1% BSA, 0.05% Tween 20, 1 mM DTT) to remove unbound ligand and to reduce non-specific binding. […] Test compounds were prepared as 111x stocks in 100% DMSO. Kds were determined using an 11-point 3-fold compound dilution series with three DMSO control points. All compounds for Kd measurements are distributed by acoustic transfer (non-contact dispensing) in 100% DMSO. The compounds were then diluted directly into the assays such that the final concentration of DMSO was 0.9%. All reactions were performed in polypropylene 384-well plates. Each was a final volume of 0.02 mL. The assay plates were incubated at room temperature with shaking for 1 hour and the affinity beads were washed with wash buffer (1×PBS, 0.05% Tween 20). The beads were then re-suspended in elution buffer (1×PBS, 0.05% Tween 20, 0.5 μM nonbiotinylated affinity ligand) and incubated at room temperature with shaking for 30 minutes. The kinase concentration in the eluates was measured by qPCR. Binding constants (Kds) were calculated with a standard dose-response curve using the Hill equation. The Hill Slope was set to −1. Curves were fitted using a non-linear least square fit with the Levenberg-Marquardt algorithm.
as §1, with “9-12” for “1-8”
Kinase-tagged T7 phage strains were prepared in an E. coli host derived from the BL21 strain. […]
For the compound `COc1cn2ncc(-c3nc(N[C@H]4CNCC[C@@H]4F)c(C#N)cc3F)c2nc1C1CC1` [Compound 7, 6-(5-cyclopropyl-6-methoxypyrazolo[1,5-a]pyrimidin-3-yl)-5-fluoro-2-(((3S,4S)-4-fluoropiperidin-3-yl)amino)nicotinonitrile], the Kd is 0.18 nM. Still for that read-out and setting: for `COc1cn2ncc(-c3nc(N[C@H]4CNCC[C@@H]4F)c(C#N)cc3F)c2nc1C(C)(C)O` [Compound 10, 5-fluoro-2-(((3S,4S)-4-fluoropiperidin-3-yl)amino)-6-(5-(2-hydroxypropan-2-yl)-6-methoxypyrazolo[1,5-a]pyrimidin-3-yl)nicotinonitrile] the value was 0.2 nM; for `COc1cn2ncc(-c3nc(N[C@H]4CNCC[C@@H]4F)c(F)cc3F)c2nc1C(C)(C)O` [Compound 13, 2-(3-(3,5-difluoro-6-(((3S,4S)-4-fluoropiperidin-3-yl)amino)pyridin-2-yl)-6-methoxypyrazolo[1,5-a]pyrimidin-5-yl)propan-2-ol], less than 0.17 nM.

Staying with this experiment, now noted: Table 18; no ATP.
Compound `COc1cn2ncc(-c3nc(N[C@H]4CNCC[C@@H]4F)ncc3F)c2nc1C(C)(C)O` [Compound 6a, 2-(3-(5-fluoro-2-(((3S,4S)-4-fluoropiperidin-3-yl)amino)pyrimidin-4-yl)-6-methoxypyrazolo[1,5-a]pyrimidin-5-yl)propan-2-ol] came in with a Kd of 0.25 nM. For the compound `COc1cn2ncc(-c3cncc(N[C@H]4CNCC[C@@H]4F)n3)c2nc1C1CC1` [Compound 12a, 6-(5-cyclopropyl-6-methoxypyrazolo[1,5-a]pyrimidin-3-yl)-N-((3S,4S)-4-fluoropiperidin-3-yl)pyrazin-2-amine], the Kd was 0.54 nM. Compound `COc1cn2ncc(-c3nc(N[C@@H]4CCCNC4)ncc3F)c2nc1C1CC1` [Compound 14a, (R)-4-(5-cyclopropyl-6-methoxypyrazolo[1,5-a]pyrimidin-3-yl)-5-fluoro-N-(piperidin-3-yl)pyrimidin-2-amine] gave a dissociation constant Kd of 0.2 nM. On to `COc1cn2ncc(-c3nc(N[C@H]4CNCC[C@@H]4F)ncc3F)c2nc1C1CC1` [Compound 15a, 4-(5-cyclopropyl-6-methoxypyrazolo[1,5-a]pyrimidin-3-yl)-5-fluoro-N-((3S,4S)-4-fluoropiperidin-3-yl)pyrimidin-2-amine], for which the Kd was determined as 0.37 nM. Still for that read-out and setting: for `COc1cn2ncc(-c3ccnc(N[C@H]4CNCC[C@@H]4F)n3)c2nc1C1CC1` [Compound 7a, 4-(5-cyclopropyl-6-methoxypyrazolo[1,5-a]pyrimidin-3-yl)-N-((3S,4S)-4-fluoropiperidin-3-yl)pyrimidin-2-amine] the value was 1.2 nM.
